Laboratory results: PMC3204379 (Journal of molecular biology, 2011)

Biological target: PtpA (Staphylococcus aureus, UniProt P0C5D2)
Assay: phosphatase activity
Type: biochemical
Details: artificial substrate; conditions not given

Chain of PtpA (P0C5D2 whole entry): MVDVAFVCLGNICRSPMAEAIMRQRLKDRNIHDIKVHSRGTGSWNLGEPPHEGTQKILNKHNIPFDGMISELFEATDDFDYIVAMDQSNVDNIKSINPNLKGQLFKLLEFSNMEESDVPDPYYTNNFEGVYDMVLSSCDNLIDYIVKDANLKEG

O=[N+]([O-])c1ccc(OP(=O)(O)O)cc1 [para-nitrophenol phosphate]
phosphatase activity (data not shown): activity of PtpA with the artificial phosphatase substrate para-nitrophenol phosphate
